According to patent publication US11045519B2, “Arginine-rich polypeptide compositions and methods of using same” (UNM Rainforest Innovations, priority 2017, dated 2021):

Key:
Assay type in all cases: cell-based
[1] = test system: HPV16 PsVs; experiment: Dissociation of cell-bound HPV16 PsVs from HaCaT cells (L1 immunoblot); details: 3 μM added to HPV-bound HaCaT cells, 1 h 4° C.
Protocol: (A) HPV16 PsVs were bound to HaCaT cells (one hour at 4° C.), before the addition of […]. After a one-hour incubation at 4° C., unbound virus was washed out, cells were lysed and analyzed for the content of HPV L1 protein. (B) HaCaT cells were exposed to HPV 16 PsV at 4° C. in the absence of polyR, simultaneously with polyR (0 h), or one hour after polyR treatment (+1 h). After extensive washing with PBS, cells were lysed and analyzed for the content of HPV16 L1 protein.
FIG. 19. […] HPV16 PsVs were bound to HaCaT cells (one hour in cold), before the addition of 5 μM PrS. After a one-hour incubation at 4° C., unbound virus was washed out, cells were lysed, and HPV L1 protein content was measured as described in FIG. 16.
To determine whether polyR could cause HPV16 dissociation from cells, HPV16 PsVs were bound to HaCaT cells for one hour at 4° C. After washing away unbound virus, HPV-bound cells were incubated with 3 μM polyR for one hour at 4° C.; control cells were untreated. Cells were lysed and analyzed for HPV L1 protein content. […]
The post-attachment inhibitory effects of PrS could be due the displacement of capsids from the cell surface. […] After a one-hour incubation at 4° C., unbound virus was washed out, cells were lysed, and the HPV L1 protein content was analyzed.

[2] = test system: HPV16 PsVs; experiment: Post-attachment and time-course HPV16 PsV infection of HaCaT cells
Protocol: FIG. 6. PolyR inhibits HPV16 PsV infection at pre-attachment and post-attachment stages. (A) Infection of HaCaT cells with HPV16. Semi-confluent HaCaT cells were left untreated with polyR (H16) or exposed to HPV16 PsV 1 h before (polyR/H16) or one hour after […] (H16/PolyR) treatment, were subjected to infectivity measurements after a 24-hour incubation at 37° C. (as described in FIG. 1). (B) Time-course experiments of HPV infection in the absence or presence of polyR. Untreated control cells were infected with HPV16 PsV (HPV16). HaCaT cells were treated with 1 μM polyR before (+1 h polyR/HPV16), concurrently (0 h polyR/HPV16) or at one hour, two hours, four hours, six hours, or eight hours post-attachment of HPV16 PsVs. Infection was scored at 24 hours post HPV attachment and shift to 37° C.
FIG. 18. PrS post-attachment effect on HPV infection. HaCaT cell were incubated with 500 vge/cell HPV PsVs at RT for one hour before addition of 1.5 μM PrS complexed with 0.1% HMW HA or with 3 μM LMW HA. Infection scored 24 after infection as described in FIG. 12.
FIG. 20. Time-course experiments of HPV infection in the presence of PrS or HA:PrS complex. (A) PrS; (B) HA:PrS complex. HaCaT cells were treated with 2 μM PrS or 2 μM PrS associated with 0.1% HMW HA at indicated times post-attachment of HPV16 PsVs, and infection was scored 24 hours after infection as described in FIG. 12. Time-point zero represents initial PsV inoculation.
The data above show clearly that polyR can inhibit HPV binding to cells and infection, but that polyR cannot displace HPV after bound to cells. To determine whether polyR can alter HPV infectivity if it is present after HPV is bound to cells, the infection levels of virus-exposed cells that are either pre-treated with polyR before virus binding, polyR-treated after HPV binding, or untreated with polyR were compared. […] This indicates a second mechanism whereby polyR can block HPV infection after virus is bound to cells.
Next, the effectiveness of polyR treatment in blocking infection when added at increasing times post HPV binding to cells was tested. This time-course experiment confirmed that polyR affects post-attachment stages of virus infection. HaCaT cells were treated with polyR one hour prior to virus exposure, concurrently with virus exposure, and at increasing times after virus was bound and unbound virus was removed. Infection efficiency was measured after a 24-hour incubation at 37° C. The cells infected with HPV16 PsV in the absence of polyR (FIG. 6B, HPV16) was considered as 100% infection efficiency.
To investigate PrS post-attachment effect on infection, HaCaT cell were exposed with HPV PsVs at room temperature for one hour before addition of PrS complexed with heavy molecular weight (HMW) HA or with low molecular weight (LMW) HA.
Time-course experiments in which HaCaT cells were exposed to PrS or PrS:HA complex at various times after attachment with HPV16 PsVs confirmation this mechanism.

[3] = test system: authentic HPV16 virions; experiment: Authentic HPV16 virion infection of HaCaT cells, RT-qPCR of spliced E1^E4 mRNA; details: 0.5 μM, 100 vge/cell, three days post-infection
Protocol: FIG. 10. PolyR inhibits activity of authentic HPV16 virions. HaCaT cells were infected with authentic HPV16 virions (100 vge/cell) in the presence or absence of 500 nM polyR. At three days post-infection, total RNA was extracted from cells using TRIzol reagent (Invitrogen, Thermo Fisher Scientific, Inc., Carlsbad, Calif.). Equal amount of the RNA of polyR-treated and untreated cells was subjected to reverse transcription. Each RT reaction was divided into three qPCR amplifications of 45 cycles targeting the spliced transcripts of cellular β-actin or HPV16 cDNAs. Primers E7.4A and E4B target an amplimer derived from spliced E1^E4 RNA, as previously described (Patterson et al., 2005. J Virol 79:6838-6847).
To validate the effect of polyR was not simply related to pseudovirus infections, HaCaT cells were infected with authentic HPV16 virions carrying viral genomes (100 vge/cell) in the presence or absence of 0.5 μM polyR. At three days post-infection, the cells were harvested and total RNA was extracted using TRIzol reagent (Invitrogen, Thermo Fisher Scientific, Inc., Carlsbad, Calif.). Nucleic acid concentrations were determined by optical density measurements. […] Quantification of cDNA derived from the spliced viral E1^E4 mRNA via qPCR was analyzed in triplicate samples from multiple separate experimental infections.

poly-L-arginine [polyR]
release of HPV16 from cell membrane [1]: did not induce the release of HPV16 from the cell membrane
inhibition of HPV16 infection ([2]; 1 μM, added 1 h before virus exposure): > 95%
inhibition of HPV16 infection ([2]; 1 μM, added 1 h to 2 h post HPV binding): Strong infection inhibition
reduction in HPV infection ([2]; 1 μM, added 4 h post infection): approximately 75%
inhibition of HPV16 infection ([2]; 1 μM, added 6 h to 8 h post infection): Only mild inhibition
inhibition of HPV16 infection ([2]; 1 μM, added simultaneously with HPV (0 h)): same magnitude of infection inhibition
inhibition of infection when added after virus binding versus before ([2]; 2 μM, 1 h after versus 1 h before HPV16 PsV, 24 h): as effective at inhibiting HPV infection when added after virus was bound to cells as it was when added prior to virus exposure
inhibition of HPV16 infection (RT-qPCR) [3]: ~90%
